# Source: patent publication EP2170322B1, “METHODS OF MODIFYING AMYLOID ß OLIGOMERS USING NON-[…] COMPOUNDS” (Acumen Pharmaceuticals, Inc., priority 2007, dated 2009)
# Target: T1, Aβ1-42 (Homo sapiens, UniProt P05067)
# T1 construct: containing 0.2 µM FITC-Aβ(1-42) and 0.8 µM Aβ(1-42)
# Assay: FRET assay of Aβ1-42 oligomer (ADDL) assembly inhibition
# Format: biochemical
# Conditions: for IC50: assay of Example 1, 0.2 µM FITC-Aβ(1-42) and 0.8 µM Aβ(1-42), 37°C, six concentrations from about 30 µM to about 0.05 µM
# Text: Fluorescence (or Förster) Resonance Energy Transfer (FRET) is a distance-dependent, non-radiative transfer of energy in which the de-excitation of one fluorophore (donor) is coupled to excitation of another fluorophore (acceptor). FRET occurs if (1) the quantum of energy emitted by a donor fluorophore corresponds to an acceptor fluorophore's excitation energy, (2) the orientations of donor and acceptor transition dipoles are nearly parallel and (3) the donor fluorescent emission spectrum overlaps the acceptor absorption spectrum. In this assay, assembly of Aβ1-42 oligomer formation is monitored by FRET using N-terminal conjugates of fluorescein-Aβ1-42 as both the donor and acceptor fluorophore (fluorescein-fluorescein Ro~ 45 Ǻ). Aβ1-42 monomers assembling into oligomeric species results in a decrease of fluorescence as the fluorescein labeled Aβ1-42 peptides become proximal to each other and FRET efficiency increases. Inhibition of Aβ1-42 assembly is observed as the absence or attenuation of fluorescein quenching. FRET and FP assays are performed in 384-well Coming Non-Binding Surface, black, opaque microtiter plates, and the assay buffer consists of 50 mM MOPS-Tris (pH 8.0) with 100 mM MgCl2. The assay volume, containing 0.2 µM FITC-Aβ(1-42) and 0.8 µM Aβ(1-42), is 50 µl and the temperature is 37°C. ADDL assembly is monitored on a Tecan GENios Pro plate reader, exciting at a wavelength of 485 nm and detecting emission at a wavelength of 515 nm. Kinetic traces are collected by recording fluorescence intensity and polarization readings every five minutes over about a three to about a six-hour time course. […] Positive control reactions contain all buffer components in the absence of added small molecule or antibody reagents. To test for ADDL assembly inhibition, the non-peptidic compound was incubated with the peptide mixture at six concentrations from about 30 µM decreasing to about 0.05 µM.
# T1 sequence (P05067 672-713 limits assumed): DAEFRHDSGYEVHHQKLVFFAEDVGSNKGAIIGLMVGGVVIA
compound,measurement,setting,value
"COc1ccccc1NC(=O)C(=O)N1N=C(CC(C)C)CC1(O)C(F)(F)F (centres unmarked) [Compound 5, 2-(5-hydroxy-3-isobutyl-5-(trifluoromethyl)-4,5-dihydro-1H-pyrazol-1-yl)-N-(2-methoxyphenyl)-2-oxoacetamide]",IC50,,3.2 µM
O=C(N/N=C/c1ccc2ccccc2c1O)c1ccccc1O [Compound 6],IC50,,3.8 µM
"CCOC(=O)c1c(NC(=O)C(=O)N/N=C/c2c(O)ccc3ccccc23)sc2c1CCC(C)C2 (centres unmarked) [Compound 3, 2-{[1-(2-Hydroxynaphthalen-1-yl)-meth-(E)-ylidene-hydrazinooxalyl]-amino}-6-methyl-4,5,6,7-tetrahydro-benzo[b]thiophene-3-carboxylic acid ethyl ester]",IC50,,4.4 µM
"COc1ccccc1NC(=O)C(=O)N/N=C(/CC(=O)c1cccs1)C(F)(F)F [Compound 1, N-(2-Methoxy-phenyl)-2-oxo-2-{N'-[3-oxo-3-thiophen-2-yl-1-trifluoromethyl-prop-(Z)-ylidene]-hydrazino}-acetamide]",IC50,,3.9 µM
"CCOC(=O)c1c(NC(=O)C(=O)N/N=C/c2ccccc2O)sc2c1CCC(C)C2 (centres unmarked) [Compound 4, 2-{[1-(2-Hydroxyphenyl)-meth-(E)-ylidene-hydrazinooxalyl]-amino}-6-methyl-4,5,6,7-tetrahydro-benzo[b]thiophene-3-carboxylic acid ethyl ester]",inhibition of Aβ1-42 oligomer assembly,"Test Compound A ranging from 0.05 to 3 mM, FIG. 1",dose dependent inhibition
same,IC50,,1.1 µM
"CCOC(=O)c1c(NC(=O)C(=O)N/N=C/c2cccc(OC)c2O)sc2c1CCC(C)C2 (centres unmarked) [Compound 2, 2-{[1-(2-Hydroxy-3-methoxy-phenyl)-meth-(E)-ylidene-hydrazinooxalyl]-amino}-6-methyl-4,5,6,7-tetrahydro-benzo[b]thiophene-3-carboxylic acid ethyl ester]",IC50,,3.5 µM
"NCCCS(=O)(=O)O [Alzhemed, 3-amino-1-propanesulfonic acid, reference compound]",inhibition of Aβ1-42 monomer assembly into Aβ oligomers,"standard FRET assay conditions of Example 1, comparative example, FIG 2",inability
